From patent publication US20130245116A1, “COMPOSITIONS AND METHODS FOR THE DISRUPTION OF MYCOBACTERIUM BIOFILM” (priority 2011, published 2013)

Tested on: M. smegmatis mc^2155 biofilm
Experiment: Assay for M. smegmatis biofilm inhibition (pellicle formation in M63 medium)
Assay type: cell-based
Experimental: Two ml of 7H9/ADC culture medium was inoculated with […] of a starter culture of M. smegmatis mc^2155 in 40% glycerol and incubated at 37° C. without shaking for 16-24 hr. This culture was transferred into 10 ml of GAS medium and incubated in the incubator/shaker at 37° C. to an absorbance at 650 nm of <1.5, diluted to an absorbance of 0.02-0.03 in M63 culture medium. Then aliquots of 2.0 ml of this inoculated M63 medium were placed in sterile 1.5×10-cm glass tubes and the purified compounds to be tested were added. The test tubes were incubated in the heat block at 37° C. for 3 to 7 days. Pellicles began to form at the air-liquid interface of control culture on day-2, the pellicle thickened and cells began climbing up the surface of the glass. Such pellicles are recognized as biofilm. In the biofilm inhibition assay, the purified compounds dissolved in CM (2:1) were added at zero time and the development of biofilm was recorded on day-3 and -4.
In the biofilm inhibition assay, control culture began developing a smooth surface growth after two days and the cells began to climb up the wall of the tube. The surface growth continued and thickened over days-4 and -5. There was no observable submerged growth in the M63 medium over this period. […] After this period, rough surface pellicles began to appear along with some submerged growth (planktonic growth).

C16:3-fatty acyl-/C25-mycocerosyl-phthiotriol diester
concentration for complete inhibition of M. smegmatis biofilm formation: 12.5 µg/mL

Trehalose monomycolate [TMM, reference compound]
biological activity in M. smegmatis biofilm inhibition assay (concentration not given): not active
